According to patent US9133186B2, “Hetero ring-fused imidazole derivative having AMPK activating effect” (Shionogi & Co., Ltd., priority 2010, dated 2015):

Target: T1, human AMPK α1β1γ1 enzyme (Homo sapiens, UniProt Q13131+Q9Y478)
T1 construct: purchased Carna Biosciences, Inc
Experiment: AMPK activator evaluation, Test Example 1 (mobility shift, FL-Peptide 7)
Assay type: biochemical
Details: human AMPK α1β1γ1, control without compound = 100%; for Emax: read-out: Emax (maximum rate of increase in activity within the measurement range)
Procedure: To a buffer solution consisting of a 50 mM HEPES-NaOH buffer solution (pH 7.0), 100 mM NaCl, 10 mM magnesium chloride, 0.1% bovine serum albumin, 0.2 mM sodium orthovanadate(V), 1 mM ethylene glycol-bis(2-aminoethyl ether)-N,N,N′,N′-tetraacetic acid (EGTA), 5 mM disodium (3-glycerophosphate and 2 mM dithiothreitol, a human AMPK α1β1γ1 enzyme (manufactured by Carna Biosciences, Inc.) was added in an amount to give a conversion rate of approximately 10% by reaction for 2 hours, and a compound dissolved in DMSO was added thereto so as to have a 1% DMSO concentration. The obtained liquid was left to stand for 10 minutes.
To the liquid, a substrate solution consisting of a 50 mM HEPES-NaOH buffer solution (pH 7.0), 100 mM NaCl, 10 mM magnesium chloride, 0.1% bovine serum albumin, 0.2 mM sodium orthovanadate(V), 1 mM ethylene glycol-bis(2-aminoethyl ether)-N,N,N′,N′ tetraacetic acid (EGTA), 5 mM disodium β-glycerophosphate, 2 mM dithiothreitol, 0.4 mM ATP and 3 μM FL-Peptide 7 (manufactured by Caliper Life Sciences, Inc.) was added in equal amount (10 μl in total). The obtained liquid was allowed to react at 25° C. for 2 hours, and 10 μl of 20 mM EDTA was then added thereto to stop the reaction.
To detect phosphorylated fluorescent substrates, the reaction liquid was applied to a measuring device, LabChip EZ Reader II manufactured by Caliper Life Science, Inc., for detecting fluorescence by using differences in mobility due to differences in charge. The setting conditions for the device were pressure, −1.5 PSI; upstream voltage, −2250 V; downstream voltage, −400 V; post sample buffer sip time, 40 seconds; final delay, 120 seconds; and peak order, Product First.

T1 sequence (Q13131 10-559 limits assumed): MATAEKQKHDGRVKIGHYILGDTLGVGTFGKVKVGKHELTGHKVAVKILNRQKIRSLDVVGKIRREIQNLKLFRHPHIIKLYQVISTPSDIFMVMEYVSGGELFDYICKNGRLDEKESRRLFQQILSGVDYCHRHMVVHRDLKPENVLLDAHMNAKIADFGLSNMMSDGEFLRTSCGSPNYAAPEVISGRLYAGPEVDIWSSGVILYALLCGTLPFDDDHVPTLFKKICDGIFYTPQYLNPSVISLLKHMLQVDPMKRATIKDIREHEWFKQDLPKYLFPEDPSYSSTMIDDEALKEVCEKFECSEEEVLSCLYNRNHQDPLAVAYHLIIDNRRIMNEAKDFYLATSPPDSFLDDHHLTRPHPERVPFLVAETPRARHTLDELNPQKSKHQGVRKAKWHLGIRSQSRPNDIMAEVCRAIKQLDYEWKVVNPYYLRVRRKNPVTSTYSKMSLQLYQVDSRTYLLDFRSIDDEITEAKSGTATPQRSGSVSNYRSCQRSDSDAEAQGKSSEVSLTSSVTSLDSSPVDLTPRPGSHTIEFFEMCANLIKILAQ
T1 sequence (Q9Y478 whole entry): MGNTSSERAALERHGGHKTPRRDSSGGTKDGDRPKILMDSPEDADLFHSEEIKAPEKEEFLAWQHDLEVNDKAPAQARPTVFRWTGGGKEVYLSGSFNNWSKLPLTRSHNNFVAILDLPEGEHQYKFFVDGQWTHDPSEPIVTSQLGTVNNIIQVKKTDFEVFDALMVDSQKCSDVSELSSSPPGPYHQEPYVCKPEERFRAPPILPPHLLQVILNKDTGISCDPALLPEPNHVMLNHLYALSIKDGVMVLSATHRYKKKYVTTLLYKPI
T1 sequence (P54619 whole entry partner): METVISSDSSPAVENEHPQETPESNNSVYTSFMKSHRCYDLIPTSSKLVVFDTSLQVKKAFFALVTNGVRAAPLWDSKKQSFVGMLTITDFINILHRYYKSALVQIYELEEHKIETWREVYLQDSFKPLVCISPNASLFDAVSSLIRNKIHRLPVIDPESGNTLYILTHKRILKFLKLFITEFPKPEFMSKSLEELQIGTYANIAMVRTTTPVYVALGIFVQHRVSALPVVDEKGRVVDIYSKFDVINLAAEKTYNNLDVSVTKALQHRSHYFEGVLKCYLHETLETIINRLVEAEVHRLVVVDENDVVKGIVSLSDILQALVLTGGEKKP

| Structure (SMILES) | EC150 (compound concentration showing 150% relative to the control) [nM] | Emax [%] |
| --- | --- | --- |
| CC(=O)NC(C)(C)c1ccc(Oc2nc3nc(-c4ccc(N5CCOCC5)cc4)c(Cl)cc3[nH]2)cn1 [Compound D-1] | 430 | 182 |
| CC(=O)NC(C)(C)c1ncc(Oc2nc3nc(-c4ccc(N5CCOCC5)cc4)c(Cl)cc3[nH]2)cn1 [Compound D-2] | 220 | 255 |
| CN1CCc2cc(-c3nc4nc(Oc5ccc(C(C)(C)C(N)=O)cc5)[nH]c4cc3Cl)ccc21 [Compound D-3] | 220 | 192 |
| CC(C)(C(N)=O)c1ccc(Oc2nc3nc(-c4ccc(C5(COC(N)=O)CC5)cc4)c(Cl)cc3[nH]2)cc1 [Compound D-4] | 70 | 207 |
| CC(C)(C(N)=O)c1ccc(Oc2nc3nc(-c4ccc(N5CCOCC5)cc4)c(Cl)cc3[nH]2)cn1 [Compound D-7] | 1600 | 285 |
| CC(=O)NC(C)(C)c1ccc(Oc2nc3nc(-c4ccc(N5CCOCC5)cc4)c(Cl)cc3[nH]2)cc1F [Compound D-8] | 39 | 244 |
| CC(C)(CO)c1ccc(Oc2nc3nc(-c4ccc(N5CCOCC5)cc4)c(Cl)cc3[nH]2)cn1 [Compound D-9] | 380 | 186 |
| CC(C)(C(N)=O)c1ccc(Oc2nc3nc(-c4ccc(N5CCOCC5)cc4)c(Cl)cc3[nH]2)cc1F [Compound D-12] | 69 | 226 |
| CC(=O)NC(C)(C)c1ccc(Oc2nc3nc(-c4ccc(OCCO)cc4)c(Cl)cc3[nH]2)cc1 [Compound D-16] | 8.5 | 280 |
| CC(=O)NC(C)(C)c1ccc(Oc2nc3nc(-c4ccc(CCO)cc4)c(Cl)cc3[nH]2)cc1 [Compound D-17] | 11 | 282 |
| CC(C)(C(=O)O)c1cccc(Oc2nc3nc(-c4ccc(N5CCOCC5)cc4)c(Cl)cc3[nH]2)c1 [Compound D-18] | 21 | 325 |
| CC(=O)NC(C)(C)c1ccc(Oc2nc3nc(-c4ccc(N(C)C)cc4)c(Cl)cc3[nH]2)cc1 [Compound D-21] | 41 | 351 |
| CC(C)(C(N)=O)c1ccc(Oc2nc3nc(-c4ccc(C5(CO)CC5)cc4)c(Cl)cc3[nH]2)cc1 [Compound D-24] | 140 | 198 |
| CC(C)(NC(=O)CO)c1ccc(Oc2nc3nc(-c4ccc(N5CCOCC5)cc4)c(Cl)cc3[nH]2)cc1 [Compound D-25] | 31 | 225 |
| CC(=O)NC(C)(C)c1ccc(Oc2nc3nc(-c4cccc(N(C)C)c4)c(Cl)cc3[nH]2)cc1 [Compound D-26] | 82 | 282 |
| CNc1ncc(Oc2nc3nc(-c4ccc(N5CCOCC5)cc4)c(Cl)cc3[nH]2)cn1 [Compound D-31] | 19 | 314 |
| CC(=O)NCC(C)(C)c1ccc(Oc2nc3nc(-c4ccc(N5CCOCC5)cc4)c(Cl)cc3[nH]2)cc1 [Compound D-33] | 52 | 220 |
| CC(=O)NC(C)(C)c1ccc(Oc2nc3nc(-c4ccc(-c5ccccc5O)cc4)c(Cl)cc3[nH]2)cc1 [Compound D-39] | 0.6 | 310 |
| CNCC(C)(C)c1ccc(Oc2nc3nc(-c4ccc(N5CCOCC5)cc4)c(Cl)cc3[nH]2)cc1 [Compound D-41] | 8300 | 159 |
| CC(=O)NC(C)(C)c1ccc(Oc2nc3nc(-c4ccc(C5(CO)CC5)cc4)c(Cl)cc3[nH]2)cn1 [Compound D-42] | 260 | 187 |

| Structure (SMILES) | EC150 (compound concentration showing 150% relative to the control) [nM] | Emax [%] |
| --- | --- | --- |
| COCC(=O)NC(C)(C)c1ccc(Oc2nc3nc(-c4ccc(N5CCOCC5)cc4)c(Cl)cc3[nH]2)cc1 [Compound D-50] | 11 | 225 |
| CC(C)(NS(C)(=O)=O)c1ccc(Oc2nc3nc(-c4ccc(N5CCOCC5)cc4)c(Cl)cc3[nH]2)cc1 [Compound D-52] | 2800 | 169 |
| CC(C)(C(N)=O)c1ncc(Oc2nc3nc(-c4ccc(N5CCOCC5)cc4)c(Cl)cc3[nH]2)cn1 [Compound D-54] | 110 | 252 |
| CC(C)(C(=O)NCCO)c1ccc(Oc2nc3nc(-c4ccc(N5CCOCC5)cc4)c(Cl)cc3[nH]2)cn1 [Compound D-55] | 2700 | 177 |
| COC(=O)NC(C)(C)c1ccc(Oc2nc3nc(-c4ccc(N5CCOCC5)cc4)c(Cl)cc3[nH]2)cn1 [Compound D-56] | 68 | 211 |
| CC(=O)NC(C)(C)c1ccc(Oc2nc3nc(-c4ccc(C5(CO)CCC5)cc4)c(Cl)cc3[nH]2)cc1 [Compound D-58] | 66 | 224 |
| CC(=O)NC(C)(C)c1ccc(Oc2nc3nc(-c4ccc(NCCO)cc4)c(Cl)cc3[nH]2)cc1 [Compound D-62] | 80 | 267 |
| CC(C)(C)C(=O)NC(C)(C)c1ccc(Oc2nc3nc(-c4ccc(N5CCOCC5)cc4)c(Cl)cc3[nH]2)cc1 [Compound D-65] | 42 | 252 |
| CC(=O)NC(C)(C)c1ccc(Oc2nc3nc(-c4ccc(C5=CCOCC5)cc4)c(Cl)cc3[nH]2)cn1 [Compound D-70] | 180 | 214 |
| CC(C)(C(N)=O)c1ccc(Oc2nc3nc(-c4ccc(C5(CO)CC5)cc4)c(Cl)cc3[nH]2)cn1 [Compound D-71] | 860 | 174 |
| CC(C)(CO)c1ccc(Oc2nc3nc(-c4ccc(C5(CO)CC5)cc4)c(Cl)cc3[nH]2)cn1 [Compound D-72] | 220 | 192 |
| CC(=O)NC(C)(C)c1ccc(Oc2nc3nc(-c4ccc(C5=CCOCC5)cc4)c(Cl)cc3[nH]2)cc1 [Compound D-73] | 17 | 254 |
| CONC(=O)C(C)(C)c1ccc(Oc2nc3nc(-c4ccc(N5CCOCC5)cc4)c(Cl)cc3[nH]2)cn1 [Compound D-102] | 4300 | 172 |
| CC(=O)NC(C)(C)c1ccc(Oc2nc3nc(-c4ccc(C5(C(C)O)CC5)cc4)c(Cl)cc3[nH]2)cc1 [Compound D-103] | 110 | 238 |
| CC(=O)NC(C)(C)c1ccc(Oc2nc3nc(-c4ccc(C5CCOCC5)cc4)c(Cl)cc3[nH]2)cc1 [Compound D-107] | 26 | 249 |
| CC(=O)NC(C)(C)c1ccc(Oc2nc3nc(-c4ccc(C5=CCN(C)CC5)cc4)c(Cl)cc3[nH]2)cc1 [Compound D-108] | 3.3 | 301 |
| CC(=O)NCCCOc1ccc(-c2nc3nc(Oc4ccc(C(C)(C)NC(C)=O)cc4)[nH]c3cc2Cl)cc1 [Compound D-109] | 18 | 270 |
| CC(=O)NC(C)(C)c1ccc(Oc2nc3nc(-c4ccc(C5(CO)COC5)cc4)c(Cl)cc3[nH]2)cc1 [Compound D-110] | 270 | 220 |
| CC(=O)NC(C)(C)c1ccc(Oc2nc3nc(-c4ccc(C5COC5)cc4)c(Cl)cc3[nH]2)cc1 [Compound D-111] | 150 | 238 |
